The text below walks through data of publication PMC11632778, “Adaptive Synthesis, Supramolecular Behavior, and Biological Properties of Amphiphilic Carbosilane-Phosphonium Dendrons with Tunable Structure” (Biomacromolecules, 2024).

On the set-up of data set [1]: method as in doi:10.1016/j.colsurfa.2004.10.066. The settings on record: standard cationic surfactant; cited from earlier work.
Data set [2] can be described thus: Dynamic light scattering (DLS/MADLS) of micelles in physiological solution. The format is physicochemical. As to the method: The size of micelles and micellar aggregates was estimated by the dynamic light scattering (DLS) method using NanoBrook OMNI ZetaPALS (Brookhaven Instruments, USA) with a detection angle 90° and 640 nm laser. The presented diameters are mean values from the intensity-weighted size distribution. The composition of the samples was as follows: dendron (1.0 mM) and NaCl (0.9%) in deionized water. The solutions were sonicated for 30 min, filtered through 0.45 μm Nylon syringe filters (Avantor, USA), placed in standard polystyrene cuvettes (BI-SCP, Brookhaven Instruments), and stored at 4 °C. All measurements were conducted at 25 °C. Measurement time was set to 5 min, and each measurement was repeated 5 times. The analysis of data was performed using Brookhaven Instruments software Particle Solutions v3.6.07136.
MADLS and size dependence on concentration and pH were measured on Zetasizer Ultra Red (Malvern Panalytical, UK) equipped with a 632.8 nm laser, applying detection angles 12.78°, 90°, and 174.7° in the case of MADLS measurements and 12.78° for size dependence measurements. MADLS and concentration dependence were measured in DTS0012 polystyrene cuvettes (Malvern Panalytical, UK); pH dependence was studied by acidobasic titration in DTS1070 folded capillary Zeta cell, using MPT-3 Multipurpose Titrator and DEG0003 Auto Degasser (all Malvern Panalytical, UK). The concentration dependence measurement started at 1.0 mM and the samples were diluted 2-fold until the minimum concentration 0.06 mM. For each concentration, the measurement was repeated 3 times giving 15 measurements in total. The pH dependence measurement started at pH 12; the titration was performed with a step of 2 and at each step, the measurement was repeated 3 times, giving 18 measurements in total. Malvern Panalytical software ZS Xplorer version 3.3.1.5 was used for the analysis of data.

Data set [3] deals with anti-miR-21 oligo(2′-O-methylribonucleotide). In words: DLS of dendriplexes with anti-miR-21 oligonucleotide. The class given is physicochemical. The conditions noted are these: for mean diameter of dendriplex: 0.9% NaCl. The protocol: Dendriplexes were characterized by DLS using Zetasizer Nano-S (Malvern Panalytical, UK) equipped with a 632.8 nm laser, applying detection angle 173°. Mean diameters from the intensity-weighted size distribution are given. Average results from three consecutive sets of measurements generated by Malvern Zetasizer Software version 7.13 are presented.
Amphiphilic dendrons (1.5–73 μM) were mixed with the anti-miR-21:5′-m([…]) (500 nM) in 0.9% NaCl solution in milli-Q water. The dendrons’ concentrations were chosen to attain the charge ratio (CR, the ratio of cations over anions in the sample) of 1.2, 2.5, 5, 10, or 20. The samples were incubated for 15 min at rt prior to measurements.

The subject of data set [4] is S. aureus MRSA—clinical isolate C1926. In words: Microdilution broth MIC. The class given is cell-based. The settings on record: Staphylococcus aureus, 24 h.
Data set [5] relates to E. faecium VRE—clinical isolate S2484. In words: Microdilution broth MIC. The format is cell-based. The conditions noted are these: Enterococcus faecium, 24 h. As to the method:
(§1) In vitro antibacterial activity of the prepared amp-DDNs (DnP6-1C12, DnP3-1C12, DnP3-2C12, and DnP3-2C18) was tested on a panel of four G+ (Staphylococcus aureus CCM 4516, methicillin-resistant S. aureus clinical isolate C1923, Staphylococcus epidermidis clinical isolate C1936, and vancomycin-resistant Enterococcus faecium clinical isolate S2484) and four G-bacterial strains (Escherichia coli K12, CCM 7929, E. coli clinical isolate A1235, extended-spectrum β-lactamase-producing (ESBL+) Klebsiella pneumoniae clinical isolate C1914, and multiresistant Pseudomonas aeruginosa clinical isolate A1245). CCM collection strains were obtained from the Czech Collection of Microorganisms. All clinical isolates were obtained during routine procedures in the clinical laboratory at the University Hospital Hradec Králové. All strains were stored at −70 °C in the Cryobank according to the manufacturer’s instructions. Subsequently, when needed, each bacterial strain was inoculated and cultivated on Mueller–Hinton agar (HiMedia, Cadersky-Envitek, Prague, Czech Republic).
(§2) The antibacterial susceptibility was determined by a microdilution broth method according to standard M07-A10,[55] and the optimized protocol has been published previously.[56],[57] Briefly, Mueller–Hinton broth (MHB) adjusted to pH 7.4 (±0.2) was used as the test medium. […] The wells of the microdilution tray contained 200 μL of the MHB with 2-fold serial dilutions of the compounds and were inoculated with 10 μL of the bacterial suspension. The bacterial suspensions were controlled densitometrically to reach 1.5 × 10^8 viable CFU per 1 mL. The minimum inhibitory concentration (MIC) values, defined as 95% inhibition of bacterial growth, were determined after 24 h of incubation at 35 °C ± 1 °C.

For data set [6], the system named is E. coli—clinical isolate A1235. In words: Microdilution broth MIC. The class given is cell-based. The conditions noted are these: Escherichia coli, 24 h. The protocol:
as §1, §2

Data set [7] relates to K. pneumoniae ESBL+—clinical isolate C1914. The data set is described as follows: Microdilution broth MIC. The class given is cell-based. The conditions noted are these: Klebsiella pneumoniae, 24 h. As to the method:
as §1, §2

In another data set the test system is S. aureus CCM 4516. The data set is described as follows: Microdilution broth MIC. The format is cell-based. The settings on record: Staphylococcus aureus, CCM4516, 24 h. The protocol: as §1, §2
The subject of data set [8] is P. aeruginosa MR—clinical isolate A1245. The data set is described as follows: Microdilution broth MIC. The format is cell-based. The conditions noted are these: Pseudomonas aeruginosa, 24 h. The protocol: as §1, §2
In data set [9] the test system is S. epidermidis—clinical isolate C1936. The data set is described as follows: Microdilution broth MIC. The format is cell-based. The conditions noted are these: Staphylococcus epidermidis, 24 h. As to the method:
as §1, §2

For the next data set, the system named is E. coli K12, CCM 7929. The data set is described as follows: Microdilution broth MIC. The format is cell-based. The conditions noted are these: Escherichia coli, CCM7929, 24 h. As to the method:
as §1, §2

Structures are written as SMILES. Bounds are passed on as bounds.

For `CCCCCCCCCCCCCCCC[N+](C)(C)C` [cetyltrimethylammonium bromide], the CMC entry in [1] was “around 1 mM”.

In the case of `CCCCCCCCCCCCCCCCCCNC(=O)c1cc(OCCC[Si](CCCSCC(=O)NCCC[P+](c2ccccc2)(c2ccccc2)c2ccccc2)(CCCSCC(=O)NCCC[P+](c2ccccc2)(c2ccccc2)c2ccccc2)CCCSCC(=O)NCCC[P+](c2ccccc2)(c2ccccc2)c2ccccc2)cc(C(=O)NCCCCCCCCCCCCCCCCCC)c1` [DnP3-2C18], the PDI entry in [2] (1.0 mM dendron, 0.9% NaCl) is recorded as “≈ 0.2”. In addition, the “mean size (DLS, intensity-weighted)” value in data set [2] (1.0 mM dendron, 0.9% NaCl, 25 °C, start of testing period) is listed as 14 nm; in [2] (1.0 mM dendron, 0.9% NaCl, after 75 day testing period, stored at 4 °C) it was 26 nm. For the same compound, the “mean size of the second population (MADLS)” value in [2] (aggregates) amounted to 80 nm. For the same compound, the “mean diameter of the smaller particles (MADLS)” value in [2] (isolated micelles) was 11.8 nm. The PI of dendriplex was 0.12 in data set [3] (CR 1.2); 0.2 in data set [3] (CR 2.5); 0.3 in data set [3] (CR 5); 0.23 in [3] (CR 10); 0.29 in data set [3] (CR 20). For the same compound, the “mean diameter of dendriplex” value is 0.20 μm in [3] (CR 1.2, anti-miR-21 500 nM); 0.9 μm in data set [3] (CR 2.5, anti-miR-21 500 nM); greater than 1 μm in [3] (CR 5, anti-miR-21 500 nM); 0.22 μm in data set [3] (CR 10, anti-miR-21 500 nM); 0.17 μm in data set [3] (CR 20, anti-miR-21 500 nM). For the same compound, the MIC (in data set [4]; in data set [5]; in [6]; in data set [7]; in the data set on S. aureus CCM 4516; in data set [8]) was greater than 12.5 µM throughout. Further, the MIC in data set [9] was greater than 12.5 µM; with E. coli K12, CCM 7929 it was greater than 12.5 µM.
